Columns and labels:
Caco-2 cells = experiment: in vitro
Method: (§1) Caco-2 cells purchased from ATCC were seeded onto […] (PET) in 96-well Corning Insert plates at 1×10^5 cells/cm^2, and refreshed medium every 4˜5 days until to the 21st to 28th day for confluent cell monolayer formation.
(§2) The transport buffer in the study was HBSS with 10.0 mM HEPES at pH 7.40±0.05. Test compound was tested at 2.00 μM bi-directionally in duplicate. Digoxin was tested at 10.0 μM bi-directionally in duplicate, while nadolol and metoprolol were tested at 2.00 μM in A to B direction in duplicate. Final DMSO concentration was adjusted to less than 1%. The plate was incubated for 2 hours in CO2 incubator at 37±1° C., with 5% CO2 at saturated humidity without shaking. And all samples after mixed with acetonitrile containing internal standard were centrifuged at 3200×g for 10 min. For nadolol and metoprolol, 200 μL supernatant solution was diluted with 600 μL ultra-pure water for LC-MS/MS analysis. For digoxin and test compounds, 200 μL supernatant solution was diluted with 200 μL ultra-pure water for LC-MS/MS analysis. Concentrations of test and control compounds in starting solution, donor solution, and receiver solution were quantified by LC-MS/MS methodologies, using peak area ratio of analyte/internal standard. After transport assay, lucifer yellow rejection assay was applied to determine the Caco-2 cell monolayer integrity.
(§3) The apparent permeability coefficient Papp (cm/s) was calculated using the equation: […]
(§4) Where dCp/dt is the cumulative concentration of compound in the receiver chamber as a function of time (μM/s); Vr is the solution volume in the receiver chamber (0.075 mL on the apical side, 0.25 mL on the basolateral side); A is the surface area for the transport, i.e. 0.0804 cm^2 for the area of the monolayer; Co is the initial concentration in the donor chamber (μM). The efflux ratio was calculated using the equation: […]
(§5) Percent recovery was calculated using the equation: […]
(§6) Where Vd is the volume in the donor chambers (0.075 mL on the apical side, 0.25 mL on the basolateral side); Ca and Cr are the final concentrations of transport compound in donor and receiver chambers, respectively.

in vitro = details: human; for recovery at 2 h: Caco-2, pH 7.4, Mean % Solution Recovery A to B
Method: as §1, §2, §3, §4, §5, §6

[1] = LogP (octanol:water partition coefficient)
Description: Crucial to the efficacy of any treatment by a pharmaceutical composition is the overall systemic bioavailability of the pharmaceutical composition used for said treatment. […] LogP is one measure of lipophyilicity, and is the octal:water partition coefficient expressed as a log ratio of molecule in octanol relative to water after mixing.

[2] = Oral delivery of unformulated Bumetanide Dibenzylamide in Beagle dogs, pharmacokinetics and bioavailability; assay type: in vivo; details: oral non-formulated Bumetanide Dibenzylamide
[3] = Pharmacokinetic study in cynomolgus monkeys after oral (nasogastric) gavage, sublingual and intravenous administration; assay type: in vivo; details: monkeys, after SL dosing of Bumetanide Dibenzylamide
Method: A pharmacokinetic study was done in cynomolgus monkeys following single oral (nasogastric) gavage, sublingual, and intravenous administration. […] Calibration curves, blanks, and analytical QCs were prepared in monkey plasma (K2EDTA). The extracts were evaporated to dryness, reconstituted, and then analyzed by LC-MS/MS. The calibration range was 0.250-250 ng/mL for both analytes.
If the criteria for either the calibration curve or the analytical QCs were not met, the analytical run was rejected. […] No deviations were found during the bioanalytical phase of the study conducted by Origin. Calibration curves were derived from the individual analyte to internal standard peak area ratios using the least squared regression of the ratio versus the nominal concentration of the calibration standard, prepared in duplicate. The regression was then used to back-calculate the concentration of each calibration standard, QC sample and study sample. […] Analyst® Software Version 1.6.3 (Applied Biosystems-MDS Sciex), operated with Windows® (Microsoft), was used for instrument control, data acquisition, and peak integrations. Peak area ratios, standard curve regressions, and sample concentration/accuracy values were calculated with Analyst® Software Version 1.6.3. Other results (e.g., mean statistics) were calculated with Excel® (Microsoft).
There was no apparent sex difference for the second formulation. […] A fourth formulation comprising the composition B listed in Table 54 was also administered in monheys.

[4] = Oral SEDDS-formulated versus unformulated Bumetanide amides in rats, blood concentration; assay type: in vivo; details: male rats
Method: SEDDS-formulated and unformulated Bumetanide Morpholinoamide and Bumetanide Diethylamide were orally administered to rats. The experiment was conducted as described previously in regards to Bumetanide Dibenzylamide. Three male and three female rats at each time point for each of the SEDDS and non-SEDDS treatments were used. […] As this appeared to be experimental error, all female rats were removed from the data.

[5] = Caco-2, pH 7.4, Mean Papp (10^−6 cm/s) A to B
[6] = human, Caco-2, 2 h, 10 μM, pH 7.4

In the case of `COCCc1ccc(OCC(O)CNC(C)C)cc1` (stereo not drawn) [metoprolol, reference compound], the “Mean % Solution Recovery A to B” value (Caco-2 cells; human, Caco-2, 2 h, pH 7.4) is reported as 95.7%, the recovery at 2 h (in vitro) is reported as 94.7% and the Papp A→B at 2 h (in vitro; [5]) is reported as 19.2 ×10⁻⁶ cm/s. It also gave a Papp A→B at 2 h (in vitro; Caco-2, pH 7.4, Rank Papp) of over 2.5 ×10⁻⁶ cm/s.

For `CCCCNc1cc(C(=O)N(CC)CC)cc(S(N)(=O)=O)c1Oc1ccccc1` [Bumetanide Diethylamide], the logP ([1]; octanol:water partition coefficient) was 3.11, the “Mean % Solution Recovery A to B” value (Caco-2 cells; Caco-2, A to B, second Table 73 (diethylamide run)) was 77.4% and the “Mean Papp (10^−6 cm/s) A to B” value (Caco-2 cells; Caco-2, A to B, test compound 2.00 μM (digoxin 10.0 μM), 2 hours, HBSS pH 7.40, second Table 73 (diethylamide run)) was 1.33 10^−6 cm/s. The “Efflux Ratio” value (Caco-2 cells; Caco-2, B to A / A to B, second Table 73 (diethylamide run)) was 31.6, the “Mean % Solution Recovery B to A” value (Caco-2 cells; Caco-2, B to A, second Table 73 (diethylamide run)) was 88.5% and the “Mean Papp (10^−6 cm/s) B to A” value (Caco-2 cells; Caco-2, B to A, test compound 2.00 μM (digoxin 10.0 μM), 2 hours, HBSS pH 7.40, second Table 73 (diethylamide run)) was 42.0 10^−6 cm/s. The “Rank Efflux Transporter Substrate” value (Caco-2 cells; Caco-2 efflux ratio rank, second Table 73 (diethylamide run)) was “Likely” and the “Rank Papp” value (Caco-2 cells; Caco-2 permeability rank, second Table 73 (diethylamide run)) was “Moderate (Moderate permeability: 0.500<Papp<2.50 (×10^−6 cm/s))”.

With `CCCCNc1cc(C(=O)O)cc(S(N)(=O)=O)c1Oc1ccccc1` [Bumetanide, reference compound] the Bumetanide levels [2] was “not measureable”, the logP [1] was about 2.61 and the “plasma concentrations of Bumetanide” value [3] was “no measurable concentrations”.

In the case of `C[C@H]1O[C@@H](O[C@H]2[C@@H](O)C[C@H](O[C@H]3[C@@H](O)C[C@H](O[C@H]4CC[C@@]5(C)[C@H](CC[C@@H]6[C@@H]5C[C@@H](O)[C@]5(C)[C@@H](C7=CC(=O)OC7)CC[C@]65O)C4)O[C@@H]3C)O[C@@H]2C)C[C@H](O)[C@@H]1O` [Digoxin, reference compound], the “Rank Efflux Transporter Substrate” value (Caco-2 cells; Caco-2) is reported as “Likely”, the “Efflux Ratio” value (Caco-2 cells; [6]) is reported as 800 and the “Mean % Solution Recovery B to A” value (Caco-2 cells; [6]) is reported as 103.4%. For the same molecule, the “Mean % Solution Recovery A to B” value (Caco-2 cells; human, Caco-2, 2 h, pH 7.4) was 97.4%, the efflux ratio at 2 h, 10 μM (in vitro; Caco-2, pH 7.4, Efflux Ratio) was 586 and the recovery at 2 h (in vitro) was 94.7%. The recovery at 2 h, 10 μM (in vitro; Caco-2, pH 7.4, Mean % Solution Recovery B to A) was 108%, the Papp A→B at 2 h (in vitro; [5]) was 0.0223 ×10⁻⁶ cm/s and the Papp B→A at 2 h, 10 μM (in vitro; Caco-2, pH 7.4, Mean Papp (10^−6 cm/s) B to A) was 13.1 ×10⁻⁶ cm/s. The Papp A→B at 2 h (in vitro; Caco-2, pH 7.4, Rank Papp) was under 0.5 ×10⁻⁶ cm/s.

With `CC(C)(C)NCC(O)COc1cccc2c1CC(O)C(O)C2` (stereo not drawn) [nadolol, reference compound] the “Mean % Solution Recovery A to B” value (Caco-2 cells; human, Caco-2, 2 h, pH 7.4) was 98.5%, the recovery at 2 h (in vitro) was 97% and the Papp A→B at 2 h (in vitro; [5]) was 0.0983 ×10⁻⁶ cm/s. The Papp A→B at 2 h (in vitro; Caco-2, pH 7.4, Rank Papp) was under 0.5 ×10⁻⁶ cm/s.

For `CCCCNc1cc(C(=O)N2CCOCC2)cc(S(N)(=O)=O)c1Oc1ccccc1` [Bumetanide morpholinoamide unformulated], the “Efflux Ratio” value (Caco-2 cells; Caco-2) was 43.8, the “Mean % Solution Recovery A to B” value (Caco-2 cells; Caco-2) was 87.4% and the “Mean % Solution Recovery B to A” value (Caco-2 cells; Caco-2) was 99.6%. For the same molecule, the “Rank Efflux Transporter Substrate” value (Caco-2 cells; Caco-2) was “Likely”, the “Mean Papp (10^−6 cm/s) A to B” value (Caco-2 cells; Caco-2, pH 7.4) was 0.709 10^−6 cm/s and the “Mean Papp (10^−6 cm/s) B to A” value (Caco-2 cells; Caco-2, pH 7.4) was 31.0 10^−6 cm/s.

For `CCCCNc1cc(C(=O)N2CCOCC2)cc(S(N)(=O)=O)c1Oc1ccccc1` [Bumetanide Morpholinoamide], the “blood concentration by 24 hrs” value [4] was “no detectable concentration”.

For `CCCCNc1cc(C(=O)N(Cc2ccccc2)Cc2ccccc2)cc(S(N)(=O)=O)c1Oc1ccccc1` [Bumetanide Dibenzylamide unformulated], the “Efflux Ratio” value (Caco-2 cells; Caco-2) was over 0.825, the “Mean % Solution Recovery A to B” value (Caco-2 cells; Caco-2) was under 4.9% and the “Mean % Solution Recovery B to A” value (Caco-2 cells; Caco-2) was 25.4%. The “Rank Efflux Transporter Substrate” value (Caco-2 cells; Caco-2) was “Poor or non-”, the “Mean Papp (10^−6 cm/s) A to B” value (Caco-2 cells; Caco-2, pH 7.4) was <0.480 10^−6 cm/s and the “Mean Papp (10^−6 cm/s) B to A” value (Caco-2 cells; Caco-2, pH 7.4) was 0.396 10^−6 cm/s.
